In assay [1] the test system is Hepatitis C virus. The assay is described as follows: Inhibition of Hepatitis C virus subtype 1b J4L6 NS5B Cdelta21 RNA dependent RNA polymerase after 60 mins by liquid scintillation counting analysis. To be noted: J4L6, 1 h.
For assay [2], the system named is Hepatitis C virus. In words: Inhibition of Hepatitis C virus CON1 NS5B RNA dependent RNA polymerase after 2 hrs by scintillation counting analysis. On the set-up: species or system Hepacivirus hominis. To be noted: Con1, 2 h.

A word on the IC50: it is the concentration needed to halve the response being measured. Read a low IC50 as greater potency. Broadly, the IC90 is the point of the concentration-response curve where the effect stands at 90%. Lower therefore signals an effect from little substance.

Turning to `COc1c2c(cc3c1C(C#CCOc1cc4c5c(oc4cc1C(C)(C)C)CCCC5)N(C)CC3)OCO2` (centres undefined), in assay [1], the IC50 came out at 38 µM. That is a double-digit micromolar value.

In the case of `CCOC(=O)c1c(NC(=O)CSc2nnc3nc4[nH]c5ccccc5c4nn23)sc2c1CCN(C)C2`, in assay [1], the midpoint of inhibition, the IC50, lay at 46.3 µM.

As to `CCOc1nc2cccc(C(=O)OC(C)OC(=O)OC3CCCCC3)c2n1Cc1ccc(-c2ccccc2-c2nn[nH]n2)cc1` (centres undefined) [CANDESARTAN CILEXETIL], in assay [2], the IC50 was 14.2 µM and it took 28 µM to reach the 90% level (IC90).

The values are drawn from ChEMBL document CHEMBL2385044, “Inhibitors for the hepatitis C virus RNA polymerase explored by SAR with advanced machine learning methods” (Bioorg Med Chem, 2013).
